The structures appear in SMILES notation. ≈ marks a conversion by molar mass, not a printed value.

In one test the test system is Enterococcus faecium. Put plainly: In vitro antibacterial activity against Enterococcus faecium 02D31P2 VanTeiEry-R. Type of test: functional.
Test [1] deals with DNA gyrase (Escherichia coli) (UniProt P0AES6+P0AES4). Nature of the test: In vitro inhibition of supercoiling activity of Escherichia coli DNA gyrase as the ratio of IC50 of Novobiocin and IC50 of compound. Type of test: protein-complex assay.
Test [2] concerns Staphylococcus epidermidis. Put plainly: In vitro antibacterial activity against Staphylococcus epidermidis 012GO39 OxaTei-R. It counts as functional.
For test [3], the system named is Staphylococcus aureus. Put plainly: In vitro antibacterial activity against Staphylococcus aureus 011GO76 OfloOxaEry-R. It counts as functional.
In test [4] the test system is Staphylococcus aureus. Put plainly: In vitro antibacterial activity against Staphylococcus aureus 011HT1 Nov-R. It counts as functional.
Test [5] relates to Staphylococcus aureus. Nature of the test: In vitro antibacterial activity against Staphylococcus aureus 011HT3. Type of test: functional.
The test system of the next test is Streptococcus pyogenes. Put plainly: In vitro antibacterial activity against Streptococcus pyogenes O2A1UC1.

Regarding `CO[C@@H]1[C@@H](OC(=O)c2ccc(C)[nH]2)[C@@H](O)[C@H](Oc2ccc3c(CSc4ncc[nH]4)cc(=O)oc3c2C)OC1(C)C`, the minimum inhibitory concentration (MIC) against Enterococcus faecium is 20 µg/mL (≈ 35.1 µM); in test [2] it was 0.6 µg/mL (≈ 1.05 µM); against Staphylococcus aureus [3], 10 µg/mL (≈ 17.6 µM); against Staphylococcus aureus [4], 20 µg/mL (≈ 35.1 µM); in the test on Staphylococcus aureus [5] it was 0.6 µg/mL (≈ 1.05 µM); with Streptococcus pyogenes, 2.5 µg/mL (≈ 4.39 µM). Also, the Ratio in test [1] came to 0.35.
In the case of `CO[C@@H]1[C@@H](OC(=O)c2ccc(C)[nH]2)[C@@H](O)[C@H](Oc2ccc3c(OCCSc4ncc[nH]4)cc(=O)oc3c2C)OC1(C)C`, the MIC in the test with Enterococcus faecium was 5 µg/mL (≈ 8.34 µM); in test [2], below 0.04 µg/mL; in the test with Staphylococcus aureus [3] it was 5 µg/mL (≈ 8.34 µM); against Staphylococcus aureus [4] it was 2.5 µg/mL (≈ 4.17 µM); against Staphylococcus aureus [5], 0.08 µg/mL (≈ 0.133 µM); against Streptococcus pyogenes, 0.6 µg/mL (≈ 1 µM). In test [1], the Ratio was 0.33.
In the case of `CO[C@@H]1[C@@H](OC(=O)c2ccc(C)[nH]2)[C@@H](O)[C@H](Oc2ccc3c(CN4CCN(C)CC4)cc(=O)oc3c2C)OC1(C)C`, the MIC in the test with Enterococcus faecium was above 40 µg/mL; in test [2] it was 2.5 µg/mL (≈ 4.39 µM); against Staphylococcus aureus [3], 5 µg/mL (≈ 8.78 µM); with Staphylococcus aureus [4], 40 µg/mL (≈ 70.2 µM); against Staphylococcus aureus [5] it was 5 µg/mL (≈ 8.78 µM); against Streptococcus pyogenes, 10 µg/mL (≈ 17.6 µM). Also, in test [1], the Ratio came out at 0.46.
As to `CO[C@@H]1[C@@H](OC(=O)c2ccc(C)[nH]2)[C@@H](O)[C@H](Oc2ccc3c(OCCn4cncn4)cc(=O)oc3c2C)OC1(C)C`, the MIC with Enterococcus faecium is 10 µg/mL (≈ 17.6 µM); in test [2], below 0.04 µg/mL; against Staphylococcus aureus [3] it was 10 µg/mL (≈ 17.6 µM); against Staphylococcus aureus [4], 20 µg/mL (≈ 35.2 µM); in the test with Staphylococcus aureus [5], 0.3 µg/mL (≈ 0.528 µM); against Streptococcus pyogenes, 1.2 µg/mL (≈ 2.11 µM). The Ratio in test [1] is 0.57.
With `CO[C@@H]1[C@@H](OC(=O)c2ccc(C)[nH]2)[C@@H](O)[C@H](Oc2ccc3c(OCCN4CCN(C)CC4)cc(=O)oc3c2C)OC1(C)C`, the MIC against Enterococcus faecium came to 40 µg/mL (≈ 66.7 µM); in test [2], 1.2 µg/mL (≈ 2 µM); against Staphylococcus aureus [3], 2.5 µg/mL (≈ 4.17 µM); against Staphylococcus aureus [4], 20 µg/mL (≈ 33.4 µM); with Staphylococcus aureus [5] it was 1.2 µg/mL (≈ 2 µM); against Streptococcus pyogenes it was 10 µg/mL (≈ 16.7 µM). Further, the Ratio in test [1] amounted to 0.5.
Take `CO[C@@H]1[C@@H](OC(=O)c2ccc(C)[nH]2)[C@@H](O)[C@H](Oc2ccc3c(OCCN4CCOCC4)cc(=O)oc3c2C)OC1(C)C`: the MIC was found to be 20 µg/mL (≈ 34.1 µM) against Enterococcus faecium; 0.15 µg/mL (≈ 0.256 µM) in test [2]; 0.6 µg/mL (≈ 1.02 µM) in the test on Staphylococcus aureus [3]; 10 µg/mL (≈ 17 µM) in the test with Staphylococcus aureus [4]; 0.3 µg/mL (≈ 0.511 µM) against Staphylococcus aureus [5]; 2.5 µg/mL (≈ 4.26 µM) in the test on Streptococcus pyogenes. The Ratio in test [1] worked out at 0.22.
Turning to `CO[C@@H]1[C@@H](OC(=O)c2ccc(C)[nH]2)[C@@H](O)[C@H](Oc2ccc3c(OCCN(C)C)cc(=O)oc3c2C)OC1(C)C`, the MIC is above 40 µg/mL in the test on Enterococcus faecium; 2.5 µg/mL (≈ 4.59 µM) in test [2]; 5 µg/mL (≈ 9.18 µM) against Staphylococcus aureus [3]; 40 µg/mL (≈ 73.4 µM) with Staphylococcus aureus [4]; 2.5 µg/mL (≈ 4.59 µM) against Staphylococcus aureus [5]; 10 µg/mL (≈ 18.4 µM) with Streptococcus pyogenes. Besides, the Ratio in test [1] was found to be 0.57.

The term MIC denotes the least concentration at which growth counts as inhibited.

Values taken from ChEMBL document CHEMBL1132005, “Structure-activity relationship in two series of aminoalkyl substituted coumarin inhibitors of gyrase B” (1999).
